# Measured values: US20150105458A1, “LINE LEAF INULA FLOWER LACTONE A AND METHODS FOR PREPARING AND USING THE SAME FOR TREATING MULTIPLE SCLEROSIS” (SHANXI ZHENDONG PILOT BIOLOGICAL SCIENCE AND TECHNOLOGY …, priority 2012, published 2015)
# Columns and labels:
# EAE mice = test: EAE model in mice, clinical course (onset and severity); type: in vivo, C57BL/6 mice; settings: intragastric administration, 50 mg/kg once per day and higher doses, day 0 to day 30; FIG. 1
# Protocol: (§1) EAE was induced in C57BL/6 mice (six mice per group) by subcutaneous injection of 0.1 ml of […] (in PBS, 300 μg/per mouse) on day 0, emulsified with Complete Freund's adjuvant (1:1) supplemented with Mycobacterium tuberculosis H37Ra antigen (400 μg/per mouse) or with Complete Freund's adjuvant alone as a control. All mice immunized with MOG received 250 ng pertussis toxin prepared in PBS, on days 0 and 2 by intraperitoneal injection.
# (§2) Line leaf inula flower lactone A 45.3 g (from Example 1) was suspended in 0.5% CMC—Na (carboxymethyl cellulose sodium) to make a mixture with final concentration as 10 mg/ml, then diluted to four concentration gradients: (1) 25 mg/kg per day; (2) 50 mg/kg per day; (3) 100 mg/kg per day; (4) 200 mg/kg per day. The drug was given to the mice by intragastric administration from day 0 to day 30.
# brain tissue of EAE mice = test: HE staining of brain tissue of EAE mice; type: in vivo, C57BL/6 mice; settings: intragastric administration, 50 mg/kg and higher doses; FIG. 2
# Protocol: as §1, §2
smiles,measurement,setting,value
C=C1C(=O)O[C@H]2C[C@@H](C)[C@@H]3[C@@H](OC(C)=O)C[C@H](O)[C@@]3(C)[C@@H](OC(C)=O)[C@H]12 [line leaf inula flower lactone A],onset of EAE,EAE mice,significantly delay the onset of EAE
same,severity of the disease (EAE),EAE mice,reduced the severity of the disease
same,"arrangement of the organization (brain tissue, HE staining)",brain tissue of EAE mice,basically returned to normal condition
same,inflammatory cells in brain and blood vessels (HE staining),brain tissue of EAE mice,reduced number of inflammatory cells in brain and blood vessels
